Measurements as given in the METLIN SMRT retention time set (Domingo-Almenara et al. 2019).

Test: gradient 5% acetonitrile 3 min, to 50% in 2 min, to 85% in 15 min, held 3 min, 100 µL/min
Settings: column: Zorbax Extend-C18 2.1 x 50 mm; eluents: water / acetonitrile, 0.1% formic acid
In short: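 The mobile phases were water and acetonitrile, each with 0.1% formic acid, pumped at 100 μL/min through a Zorbax Extend-C18 column (2.1 × 50 mm, 1.8 μm). Pure standards were injected as mixtures of ~100 molecules and detected by a quadrupole time-of-flight mass spectrometer in positive and negative ionization mode. Retention time came from computationally picked adduct peaks, each inspected by hand.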

Row | RP-LC retention time [s] | SMILES
1 | 743 | Cn1c(-c2cccc(C(=O)NCc3ccc(F)cc3F)c2)nc2cccnc21
2 | 648 | Cc1ccc(C(=O)NC(C)C(=O)Nc2nc3ccccc3[nH]2)cc1 (configuration not stated)
3 | 893 | Cc1ccc(CNC(=O)C2CCCN(C(=O)c3[nH]c(C)c(C(=O)OC(C)C)c3C)C2)cc1 (configuration not stated)
4 | 717 | Cc1ccc(CS(=O)(=O)N2CCC(CN3CCCC(C)C3)CC2)cc1C (configuration not stated)
5 | 883 | CNC(=O)C1CCCN(C(=O)Nc2ccc(NC(=O)Nc3ccc(C)cc3)cc2)C1 (configuration not stated)
6 | 868 | CC(=O)N1c2ccc(S(=O)(=O)N3CCCCC3)cc2CC1C(=O)Nc1ccc(C)cc1C (configuration not stated)
7 | 719 | Cc1ccc(C(=O)NCc2nc(-c3ccc4c(c3)ncn4C3CCCC3)no2)cc1
8 | 657 | O=C(Nc1nnc2n1CCS2)c1cc(Br)ccc1Cl
9 | 1080 | CCc1cccc(NC(=O)c2cn(CC)nc2S(=O)(=O)N2CCSCC2)c1
10 | 675 | CCN1CCN(c2ccc(-c3nc(-c4ccccc4)no3)cn2)CC1
11 | 671 | CN1CCn2cc(S(=O)(=O)Nc3ccc(F)cc3F)cc2C1=O
12 | 884 | Cc1cccc(CNC(=O)c2cc3n(n2)CC(C)(C(=O)NC2CCCCC2)N(C)C3=O)c1 (configuration not stated)
13 | 824 | CC(C(=O)N1CCN(c2cc(-c3ccccc3)[nH]n2)CC1)c1ccccc1 (configuration not stated)
14 | 800 | COc1ccc(Cl)cc1S(=O)(=O)N1CCc2nn(CC3CC3)c(=O)n2CC1
15 | 891 | CCCNS(=O)(=O)c1cc(-c2nnc(-c3ccccc3)o2)ccc1OC
16 | 800 | COCC(=O)N(CC(=O)N1CCc2sccc2C1COc1cccc(OC)c1)C1CC1 (configuration not stated)
17 | 868 | Cc1c(C(=O)NC(C)C)cnn1-c1cc(-c2nc(C(C)C)no2)ccn1
18 | 670 | CC1CCN(S(=O)(=O)c2ccc(-c3nnc(C(=O)NCCN(C)C)o3)cc2)CC1
19 | 947 | Cc1ccc(-n2nc(N3CCCN(S(=O)(=O)c4ccccc4)CC3)ccc2=O)cc1C
20 | 691 | O=C(CCC1CCCC1)N1CCN(c2nnc3c(Cl)cccn23)CC1
21 | 802 | COc1cccc(CNC(=O)C2(C)CCCN(C(=O)Nc3ccc4c(c3)OCCO4)C2)c1 (configuration not stated)
22 | 919 | Cc1ccc2c(c1)C(=O)NC1(CCN(C(=O)c3ccc(F)c(Cl)c3)CC1)N2C

Row | RP-LC retention time [s] | SMILES
23 | 846 | O=C(N[C@H]1C[C@@H]2C[C@H]1CN2C(=O)c1cccc(OC(F)(F)F)c1)c1ccccc1
24 | 660 | O=C(Nc1ccc(F)cc1F)Nc1c(-c2ccccc2)nc2ccccn12
25 | 899 | CSc1cccc(NC(=O)c2cccn2Cc2noc(C)n2)c1
26 | 1080 | CCc1cc(C(=O)Nc2ccc(Cl)cc2)nc2ccnn12
27 | 967 | Cc1cc(C)cc(S(=O)(=O)N2CCC(C(=O)NCc3csc(-c4cccs4)n3)CC2)c1
28 | 718 | CC(C)NC(=O)c1ccc(-c2nc3cc(NS(=O)(=O)c4cc(F)cc(F)c4)ccc3n2C)cc1
29 | 830 | COc1ccc(OC)c(NC(=O)C2CCCN2S(=O)(=O)c2cc3c(cc2C)NC(=O)C(C)O3)c1 (configuration not stated)
30 | 816 | CC(C)NC(=O)c1ccc(OCC2CCN(C(=O)c3ccc(N(C)C)cc3)CC2)cc1
31 | 908 | O=c1oc2cc(O)ccc2cc1-c1cc(F)cc(F)c1
32 | 1040 | CC1CCN(S(=O)(=O)c2ccc(-c3nnc(C(=O)N4CCCCC4)o3)cc2)CC1
33 | 630 | Cc1cc(C)n(-c2cc(NCCNC(=O)c3c[nH]c4ccccc34)nc(C)n2)n1
34 | 722 | Cc1ccc(NC(=O)NCC(c2cccnc2)c2cn(C)c3ccccc23)cc1F (configuration not stated)
35 | 662 | CN(CC(=O)Nc1ccc(S(N)(=O)=O)cc1)c1nc2ccccc2s1
36 | 925 | CC(C)NC(=O)Cn1cccc1-c1nc(-c2ccc3c(c2)OCO3)no1
37 | 635 | O=C1NC2(CCN(C(=O)c3ccc(F)cc3)CC2)N=C1c1cccc(F)c1
38 | 699 | O=C(Nc1cccc(-c2nnc3n2CCCC3)c1)C1CCCCC1
39 | 1050 | COc1ccc(-c2ncc3c(n2)CCN(S(=O)(=O)Cc2ccc(C)cc2)C3)cc1
40 | 598 | Cc1cc(N(C)C)nc(NCCNC(=O)C(C)(C)Oc2ccc(Cl)cc2)n1
41 | 660 | CCCNC(=O)Cc1c(C)n(C)c2nc(-c3ccccc3)nn2c1=O
42 | 623 | CCN(CCN(C)C)c1ccc(C(=O)O)cc1NS(=O)(=O)c1ccc(C)cc1
43 | 702 | Cc1ccc(NC(=O)NC2CCN(C(=O)N3C[C@H]4C[C@H](C3)[C@H]3CCCC(=O)N3C4)CC2)cc1C
44 | 955 | CN1C(=O)c2ccccc2Oc2ccc(C(=O)NCc3ccc(Br)cc3)cc21

Row | RP-LC retention time [s] | SMILES
45 | 688 | Cc1cccc(S(=O)(=O)N2CC3CN(C(=O)C4CCCO4)CC(C2)O3)c1 (configuration not stated)
46 | 912 | CCS(=O)(=O)c1ccc(-c2cccc(NC(=O)c3ccc4ccccc4n3)c2)nn1
47 | 605 | O=C(c1ccncc1)N1CCCN(c2cc(-c3ccc4c(c3)OCO4)[nH]n2)CC1
48 | 612 | CC(C)N1CCC(CC(=O)N2CCc3c(c(-c4nc(C5CC5)no4)nn3C)C2)CC1
49 | 856 | Cc1ccc(C)c(S(=O)(=O)N2C[C@@H](F)C[C@H]2C(=O)N2CCCCC2)c1
50 | 933 | Cc1ccc2oc(C(=O)Nc3ccc(-n4cnnn4)cc3)c(C)c2c1
51 | 683 | CC1=C(C(=O)N2CCOCC2)C(c2ccccc2Br)C2=C(CC(C)(C)CC2=O)N1 (configuration not stated)
52 | 803 | O=C(NC1CC1)c1ccc(OCC2CCN(C(=O)Cc3ccccc3F)CC2)cc1
53 | 838 | CC(C)OCCCNC(=O)C1CCN(S(C)(=O)=O)c2cc(Cl)ccc2O1 (configuration not stated)
54 | 586 | O=C(NCCOc1ccc(-c2ccccn2)nn1)c1cccs1
55 | 606 | O=C(c1cccc(C(F)(F)F)c1)N1CCN(c2cc(-n3ccnc3)ncn2)CC1
56 | 606 | O=C(NCc1n[nH]c(=O)c2ccccc12)c1ccc([N+](=O)[O-])o1
57 | 1000 | CCN(CC)S(=O)(=O)c1ccc2c(c1)N(CC(=O)NCCc1ccccc1)C(=O)C1CCCCN21 (configuration not stated)
58 | 864 | O=C(Nc1ccc(F)c(Cl)c1)C1CCN(C(=O)c2ncn3c2COC(c2ccccc2)C3)CC1 (configuration not stated)
59 | 816 | CCC(C)NC(=O)c1ccc(-c2cccs2)nc1 (configuration not stated)
60 | 1290 | Cc1nc(-c2cc(S(=O)(=O)N3CCCc4ccccc43)c(C)s2)sc1C
61 | 783 | Cc1cc(-c2ccc(S(=O)(=O)N3CCC(C(=O)NCCC(C)C)CC3)o2)n[nH]1
62 | 665 | Cc1nc(-c2cc3cccc(C)c3nc2N2CCN(C)CC2)no1
63 | 1100 | CCOc1ccc(-c2csc(Nc3ccc(F)cn3)n2)cc1
64 | 846 | O=C(NCc1ccco1)c1cc2c(s1)CCN(C(=O)c1ccc(Cl)cc1)C2
65 | 1080 | COc1ccccc1Nc1c(-c2ccc(Br)cc2)nc2cnccn12
66 | 747 | CCn1cnc(S(=O)(=O)N2CCC(C(=O)NCc3ccc(Br)cc3)CC2)c1

Row | RP-LC retention time [s] | SMILES
67 | 653 | O=C1c2ccccc2C(=O)c2c(O)c(NCCNCCO)cc(O)c21
68 | 943 | Cc1sc(NC(=O)c2ccccc2Br)nc1-c1ccc2c(c1)NC(=O)C(C)O2 (configuration not stated)
69 | 994 | O=C(Cn1cnc2c(sc3nc(-c4ccccc4)ccc32)c1=O)Nc1ccc(F)cc1
70 | 1080 | Cc1ccc(-c2nc(C(=O)N3CCN(c4ccccc4)CC3)cs2)n1C
71 | 960 | O=c1n(Cc2cc(F)cc(F)c2)nc2ccc(S(=O)(=O)N3CCCCC3)cn12
72 | 821 | COc1ccc(-n2cc(C(=O)Nc3cnc4ccccc4c3)nn2)cc1
73 | 934 | COc1cccc(CNC(=O)C2(C)CCN(C(=O)Nc3ccc(Br)c(C)c3)CC2)c1
74 | 1010 | CCCOc1ccc(-c2nc(N3CCC(C)CC3)c3ccccc3n2)cc1
75 | 771 | Fc1ccccc1CN1CCc2nc(N3CCN(c4ccccc4F)CC3)ncc2C1
76 | 872 | COc1ccccc1/C=C/c1nn2c(-c3cccnc3)nnc2s1
77 | 622 | Cn1ncc2c3ccccc3n(CC(=O)N3CCN(Cc4ccc5c(c4)OCO5)CC3)c2c1=O
78 | 596 | Cc1nc(-c2csc(S(=O)(=O)N3CCC(C(=O)NCCN4CCOCC4)CC3)c2)no1
79 | 652 | CC(=O)N1CCN(c2nc3c(s2)CC(C(=O)Nc2ccc(Cl)c(C)c2)CC3)CC1 (configuration not stated)
80 | 690 | CCCNC(=O)C1CCN(c2ccc(SCC(=O)Nc3cc(Cl)ccc3C)nn2)CC1
81 | 827 | COc1cccc(CNC(=O)c2nnc(-c3ccc(S(=O)(=O)N(C)C)cc3)o2)c1
82 | 1300 | CCn1c(C(=O)Nc2ccc(C)c(C)c2)cc2sc(Cl)cc21
83 | 852 | COc1ccc(NC(=O)N2CCN(c3cc(-n4nc(C)cc4C)ncn3)CC2)cc1Cl
84 | 1000 | O=S(=O)(Cc1ccccc1Cl)N(Cc1ccsc1)C1CC1
85 | 853 | Cc1ccccc1-c1noc(Cc2nnc(-c3cccc(Br)c3)o2)n1

Row | SMILES | RP-LC retention time [s]
86 | CCc1c(C(=O)O)nnn1Cc1ccc(OC)cc1 | 734
87 | COC(=O)CN1CN(c2ccccc2)C2(CCN(Cc3cccc4ccccc34)CC2)C1=O | 729
